In patent publication US9655902B2, “Guanidine derivatives for the treatment of hepatitis C” (priority 2013, dated 2017):
Read-outs that look alike come from different tables or passages of the source.

Tested on: HCV pseudoparticles (genotype 1a HCV E1 and E2 envelope, H77C isolate)
Experiment: HCV pseudoparticle infection assay (luciferase reporter, Huh7 cells)
Format: cell-based, HCV genotype 1a
Settings: Hepatitis C virus, Huh-7, 48 h, read-out: EC50 (1a, nM), genotype 1a HCV pseudoparticles, Huh7 cells, luciferase 2 days after infection

Question: Which EC50 (class symbol) does the source give for `N=C(N)N1CCCN(C(=O)c2ccc(Nc3nc(NC4(c5ccc(Cl)cc5)CC4)nc(OCC(F)(F)F)n3)cc2)CC1` [Compound 1001, 4-(4-(4-(1-(4-chlorophenyl)cyclopropylamino)-6-(2,2,2-trifluoroethoxy)-1,3,5-triazin-2-ylamino)benzoyl)-1,4-diazepane-1-carboximidamide] here?
Answer: 0.01 to 10 nM

Question: `N=C(N)NCCC[C@@H](NC(=O)c1ccc(Nc2nc(NC3(c4ccc(Cl)cc4)CC3)nc(OCC(F)(F)F)n2)cc1)C(=O)O` [Compound 1002, (R)-2-(4-(4-(1-(4-chlorophenyl)cyclopropylamino)-6-(2,2,2-trifluoroethoxy)-1,3,5-triazin-2-ylamino)benzamido)-5-guanidinopentanoic acid] was tested. Which EC50 (class symbol) did it give?
Answer: 0.01 to 10 nM

Question: What does the source list for `N=C(N)NCCC[C@H](NC(=O)c1ccc(Nc2nc(NC3(c4ccc(Cl)cc4)CC3)nc(OCC(F)(F)F)n2)cc1)C(=O)O` [Compound 1003, (S)-2-(4-(4-(1-(4-chlorophenyl)cyclopropylamino)-6-(2,2,2-trifluoroethoxy)-1,3,5-triazin-2-ylamino)benzamido)-5-guanidinopentanoic acid]?
Answer: EC50 (class symbol): 0.01 to 10 nM; EC50 (numeric value): 0.711 nM

Question: `N=C(N)N1CCCN(C(=O)c2ccc(Nc3nc(NCc4ccc(Cl)cc4)nc(OCC(F)(F)F)n3)cc2)CC1` [Compound 1004, 4-(4-(4-(4-chlorobenzylamino)-6-(2,2,2-trifluoroethoxy)-1,3,5-triazin-2-ylamino)benzoyl)-1,4-diazepane-1-carboximidamide] was tested. Which EC50 (class symbol) did it give?
Answer: 10 to 1000 nM

Question: What does the source list for `N=C(N)NCCCCNC(=O)c1ccc(Nc2nc(NCc3ccc(Cl)cc3)nc(OCC(F)(F)F)n2)cc1` [Compound 1005, 4-(4-(4-chlorobenzylamino)-6-(2,2,2-trifluoroethoxy)-1,3,5-triazin-2-ylamino)-N-(4-guanidinobutyl)benzamide]?
Answer: EC50 (class symbol): 10 to 1000 nM; EC50 (numeric value): 29.5 nM

Question: For `N=C(N)NCCC[C@@H](NC(=O)c1ccc(Nc2nc(NCc3ccc(Cl)cc3)nc(OCC(F)(F)F)n2)cc1)C(=O)O` [Compound 1006, (R)-2-(4-(4-(4-chlorobenzylamino)-6-(2,2,2-trifluoroethoxy)-1,3,5-triazin-2-ylamino)benzamido)-5-guanidinopentanoic acid], which EC50 (class symbol) is on record?
Answer: 10 to 1000 nM

Question: `N=C(N)NCCC[C@H](NC(=O)c1ccc(Nc2nc(NCc3ccc(Cl)cc3)nc(OCC(F)(F)F)n2)cc1)C(=O)O` [Compound 1007, (S)-2-(4-(4-(4-chlorobenzylamino)-6-(2,2,2-trifluoroethoxy)-1,3,5-triazin-2-ylamino)benzamido)-5-guanidinopentanoic acid] was tested. Which EC50 (class symbol) did it give?
Answer: 10 to 1000 nM

Question: How did the EC50 (class symbol) turn out when `NC(=O)/N=C(\NC1CCCC1)N1CCN(C(=O)c2ccc(Nc3nc(NC4(c5ccc(Cl)cc5)CC4)nc(OCC(F)(F)F)n3)cc2)CC1` [Compound 1008, N′-carbamoyl-4-(4-(4-(1-(4-chlorophenyl)cyclopropylamino)-6-(2,2,2-trifluoroethoxy)-1,3,5-triazin-2-ylamino)benzoyl)-N-cyclopentylpiperazine-1-carboximidamide] was run?
Answer: 0.01 to 10 nM

Question: What does the source list for `N#C/N=C(\NC1CCCC1)N1CCN(C(=O)c2ccc(Nc3nc(NC4(c5ccc(Cl)cc5)CC4)nc(OCC(F)(F)F)n3)cc2)CC1` [Compound 1009, 4-(4-(4-(1-(4-chlorophenyl)cyclopropylamino)-6-(2,2,2-trifluoroethoxy)-1,3,5-triazin-2-ylamino)benzoyl)-N′-cyano-N-cyclopentylpiperazine-1-carboximidamide]?
Answer: EC50 (class symbol): 0.01 to 10 nM; EC50 (numeric value): 3.57 nM

Question: For `NC(=O)/N=C(\N1CCC1)N1CCN(C(=O)c2ccc(Nc3nc(NC4(c5ccc(Cl)cc5)CC4)nc(OCC(F)(F)F)n3)cc2)CC1` [Compound 1010, 1-(azetidin-1-yl(4-(4-(4-(1-(4-chlorophenyl)cyclopropylamino)-6-(2,2,2-trifluoroethoxy)-1,3,5-triazin-2-ylamino)benzoyl)piperazin-1-yl)methylene)urea], which EC50 (class symbol) is on record?
Answer: 0.01 to 10 nM

Question: For `N#C/N=C(\N1CCC1)N1CCN(C(=O)c2ccc(Nc3nc(NC4(c5ccc(Cl)cc5)CC4)nc(OCC(F)(F)F)n3)cc2)CC1` [Compound 1011, N-(azetidin-1-yl(4-(4-(4-(1-(4-chlorophenyl)cyclopropylamino)-6-(2,2,2-trifluoroethoxy)-1,3,5-triazin-2-ylamino)benzoyl)piperazin-1-yl)methylene)cyanamide], which EC50 (class symbol) is on record?
Answer: 0.01 to 10 nM

Question: With `NC(=O)/N=C(\N1CCCCC1)N1CCN(C(=O)c2ccc(Nc3nc(NC4(c5ccc(Cl)cc5)CC4)nc(OCC(F)(F)F)n3)cc2)CC1` [Compound 1012, 1-((4-(4-(4-(1-(4-chlorophenyl)cyclopropylamino)-6-(2,2,2-trifluoroethoxy)-1,3,5-triazin-2-ylamino)benzoyl)piperazin-1-yl)(piperidin-1-yl)methylene)urea] as the compound, how does the EC50 (class symbol) read?
Answer: 0.01 to 10 nM

Question: With `N#C/N=C(\N1CCCCC1)N1CCN(C(=O)c2ccc(Nc3nc(NC4(c5ccc(Cl)cc5)CC4)nc(OCC(F)(F)F)n3)cc2)CC1` [Compound 1013, N-((4-(4-(4-(1-(4-chlorophenyl)cyclopropylamino)-6-(2,2,2-trifluoroethoxy)-1,3,5-triazin-2-ylamino)benzoyl)piperazin-1-yl)(piperidin-1-yl)methylene)cyanamide] as the compound, how does the EC50 (class symbol) read?
Answer: 0.01 to 10 nM

Question: For `N=C1NCCN1C(=O)c1ccc(Nc2nc(NC3(c4ccc(Cl)cc4)CC3)nc(OCC(F)(F)F)n2)cc1` [Compound 1014, (4-(4-(1-(4-chlorophenyl)cyclopropylamino)-6-(2,2,2-trifluoroethoxy)-1,3,5-triazin-2-ylamino)phenyl)(2-iminoimidazolidin-1-yl)methanone], which EC50 (class symbol) is on record?
Answer: 0.01 to 10 nM

Question: What about the EC50 (numeric value) of the same compound?
Answer: 3.01 nM

Question: Which EC50 (class symbol) does the source give for `N=C(N)NC[C@H](NC(=O)c1ccc(Nc2nc(NC3(c4ccc(Cl)cc4)CC3)nc(OCC(F)(F)F)n2)cc1)C(=O)O` [Compound 1015, (S)-2-(4-(4-(1-(4-chlorophenyl)cyclopropylamino)-6-(2,2,2-trifluoroethoxy)-1,3,5-triazin-2-ylamino)benzamido)-3-guanidinopropanoic acid] here?
Answer: 0.01 to 10 nM

Question: With `N=C(N)NCCC[C@H](NC(=O)c1ccc(Nc2nc(NC3(c4ccc(Cl)cc4)CC3)nc(OCC(F)(F)F)n2)cc1)C(N)=O` [Compound 1016, (S)—N-(1-amino-5-guanidino-1-oxopentan-2-yl)-4-(4-(1-(4-chlorophenyl)cyclopropylamino)-6-(2,2,2-trifluoroethoxy)-1,3,5-triazin-2-ylamino)benzamide] as the compound, how does the EC50 (class symbol) read?
Answer: 0.01 to 10 nM

Question: And the EC50 (numeric value)?
Answer: 0.352 nM

Question: `N=C(N)N1CCCN(C(=O)c2ccc(Nc3nc(NCc4ccc(Cl)cc4)nc(OCc4ccccc4)n3)cc2)CC1` [Compound 1017] was tested. Which EC50 (class symbol) did it give?
Answer: 10 to 1000 nM

Question: For `N=C(N)N1CCCN(C(=O)c2cccc(Nc3nc(NCc4ccc(Cl)cc4)nc(OCc4ccccc4)n3)c2)CC1` [Compound 1018], which EC50 (class symbol) is on record?
Answer: 10 to 1000 nM

Question: `N=C(N)NCCC[C@H](NC(=O)c1ccc(Nc2nc(NCc3ccc(Cl)cc3)nc(OCc3ccccc3)n2)cc1)C(=O)N[C@@H](CCC(N)=O)C(=O)O` [Compound 1019] was tested. Which EC50 (class symbol) did it give?
Answer: 10 to 1000 nM

Question: How did the EC50 (class symbol) turn out when `N=C(N)NNC(=O)c1ccc(Nc2nc(NCc3ccc(Cl)cc3)nc(OCc3ccccc3)n2)cc1` [Compound 1020] was run?
Answer: 10 to 1000 nM

Question: And the EC50 (numeric value)?
Answer: 175 nM

Question: `N=C(N)NNC(=O)c1cccc(Nc2nc(NCc3ccc(Cl)cc3)nc(OCc3ccccc3)n2)c1` [Compound 1021] was tested. Which EC50 (class symbol) did it give?
Answer: > 1000 nM

Question: `N=C(N)NS(=O)(=O)c1ccc(NC(=O)c2ccc(Nc3nc(NCc4ccc(Cl)cc4)nc(OCc4ccccc4)n3)cc2)cc1` [Compound 1022] was tested. Which EC50 (class symbol) did it give?
Answer: 10 to 1000 nM

Question: What about the EC50 (numeric value) of the same compound?
Answer: 62.5 nM

Question: For `N=C(N)NS(=O)(=O)c1ccc(NC(=O)c2cccc(Nc3nc(NCc4ccc(Cl)cc4)nc(OCc4ccccc4)n3)c2)cc1` [Compound 1023], which EC50 (class symbol) is on record?
Answer: 10 to 1000 nM

Question: Which EC50 (class symbol) does the source give for `N=C(N)NCCCCNC(=O)c1ccc(Nc2nc(NCc3ccc(Cl)cc3)nc(OCc3ccccc3)n2)cc1` [Compound 1024] here?
Answer: 10 to 1000 nM

Question: Which results are given for `N=C(N)NCCCCNC(=O)c1cccc(Nc2nc(NCc3ccc(Cl)cc3)nc(OCc3ccccc3)n2)c1` [Compound 1025]?
Answer: EC50 (class symbol): > 1000 nM; EC50 (numeric value): 4480 nM

Question: For `N=C(N)N1CCN(C(=O)c2ccc(Nc3nc(NCc4ccc(Cl)cc4)nc(OCc4ccccc4)n3)cc2)CC1` [Compound 1026], which EC50 (class symbol) is on record?
Answer: 10 to 1000 nM

Question: For `N=C(N)N1CCN(C(=O)c2cccc(Nc3nc(NCc4ccc(Cl)cc4)nc(OCc4ccccc4)n3)c2)CC1` [Compound 1027], which EC50 (class symbol) is on record?
Answer: 10 to 1000 nM

Question: For `[2H]C([2H])(Oc1nc(Nc2ccc(C(=O)N[C@@H](CCCNC(=N)N)C(N)=O)cc2)nc(NC2(c3ccc(Cl)cc3)CC2)n1)C(F)(F)F` [Compound 1028], which EC50 (class symbol) is on record?
Answer: 0.01 to 10 nM

Question: With `[2H]C([2H])(Oc1nc(Nc2ccc(C(=O)N[C@H](CCCNC(=N)N)C(=O)N[C@@H](Cc3ccccc3)C(=O)O)cc2)nc(NC2(c3ccc(Cl)cc3)CC2)n1)C(F)(F)F` [Compound 1029] as the compound, how does the EC50 (class symbol) read?
Answer: 0.01 to 10 nM

Question: `[2H]C([2H])(Oc1nc(Nc2ccc(C(=O)N[C@@H](CCCNC(=N)N)C(=O)NCC(N)=O)cc2)nc(NC2(c3ccc(Cl)cc3)CC2)n1)C(F)(F)F` [Compound 1030] was tested. Which EC50 (class symbol) did it give?
Answer: 0.01 to 10 nM

Question: `[2H]C([2H])(Oc1nc(Nc2ccc(C(=O)N[C@@H](CCCNC(=N)N)C(=O)N[C@@H](CC(N)=O)C(N)=O)cc2)nc(NC2(c3ccc(Cl)cc3)CC2)n1)C(F)(F)F` [Compound 1031] was tested. Which EC50 (class symbol) did it give?
Answer: 0.01 to 10 nM
